# In patent publication US20020183256A1, “Cytostatic-integrin conjugates having specifically cleavable linking units” (priority 2000, published 2002):
# pIC50: −log10 of the molar value. Read-outs that look alike come from different tables or passages of the source. *1 amine or outer side, *2 acyl side, *3 side chain or, on linkers, in order; H or OH if unused. Where a SMILES comes first, the peptide text is derived from it. [ ]: non-standard residue; d: D form. The star is where a group is joined. Camptothecin(20R,20-O) = CC[C@]1(O*)C(=O)OCc2c1cc1n(c2=O)Cc2cc3ccccc3nc2-1; X1 = CCCNC(=O)Nc1cccc(S(=O)(=O)Nc2cccc(C(CC(=O)O)N*)c2)c1; NH(1,4-C6H4)NHCS = S=C(Nc1ccc(N[*:1])cc1)[*:2]; CO = O=C([*:1])[*:2]; GABA = NCCCC(=O)O
# Columns and labels:
# B16F10 = test: Growth inhibition test (MTT), cytotoxic action on tumour cell lines; assay type: cell-based, mouse
# In short: (§1)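 Cells seeded at 50,000/ml (B16F10 20,000/ml) in RPMI + 10% FCS, grown 1 day at 37 °C, then compound added in DMSO. Growth read on day 6 by MTT (5 h, 37 °C), isopropanol solubilisation, extinction at 595 nm; IC50 reported per line.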
# MMP-2 = target: T1, MMP-2 (Homo sapiens, UniProt P08253); test: Cleavage of conjugates by MMP-2 in buffer (HPLC); assay type: biochemical; details: after 6 h incubation with MMP-2; buffer pH 7.5
# T1 construct: purchased Calbiochem
# T1 sequence (P08253 110-660): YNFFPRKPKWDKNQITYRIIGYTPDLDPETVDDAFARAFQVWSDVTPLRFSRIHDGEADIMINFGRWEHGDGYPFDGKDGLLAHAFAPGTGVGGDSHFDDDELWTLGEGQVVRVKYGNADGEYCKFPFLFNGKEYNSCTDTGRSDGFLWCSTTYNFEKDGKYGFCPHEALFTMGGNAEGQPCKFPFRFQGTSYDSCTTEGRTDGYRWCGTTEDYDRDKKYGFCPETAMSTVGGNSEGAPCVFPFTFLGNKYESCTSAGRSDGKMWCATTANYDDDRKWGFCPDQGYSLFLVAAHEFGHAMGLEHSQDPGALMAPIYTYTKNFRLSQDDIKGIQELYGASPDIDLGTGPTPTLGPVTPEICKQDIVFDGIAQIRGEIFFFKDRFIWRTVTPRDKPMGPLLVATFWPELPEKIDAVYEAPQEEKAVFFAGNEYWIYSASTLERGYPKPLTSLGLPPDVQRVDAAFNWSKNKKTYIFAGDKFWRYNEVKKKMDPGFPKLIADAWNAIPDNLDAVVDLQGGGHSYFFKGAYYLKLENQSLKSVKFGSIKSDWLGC
# Experimental: 2.5 μl MMP-2 (Calbiochem) with a specific activity of 60 μU/μl are incubated with 10 nM of the conjugates exemplified in the example series 1-25 in 1 ml of a medium consisting of 50 mM Tris-HCl pH 7.5, 0.2 M NaCl, 10 mM CaCL2*2H2O and 0.05% Brij 35. The enzyme mediated cleavage of the conjugates is detected by HPLC analysis using an RP18 (5 μM) column with 70% HClO4/water (0.4% v/v) as eluent A and acentonitrile as eluent B (UV detection at […]). The efficiency of the cleavage is assessed by comparing the peak areas of the intact conjugate (starting material) and the cleavage product (tripeptide conjugate of camptothecin) after 6 h and 24 h incubation (cf. Table 5).
# hemopoietic stem cells = test: CSF-induced proliferation of hemopoietic stem cells (colony formation); assay type: cell-based, mice; details: murine bone marrow cells, GM-CSF, 7 days
# Experimental: Bone marrow cells are flushed out of the femur of mice. 10^5 cells are incubated in McCoy 5A medium (0.3% agar) together with recombinant murine GM-CSF (Genzyme; parent cell colony formation) and the substances (10^−4 to 100 μg/ml) at 37° C. and 7% CO2. 7 days later, the colonies […] and clusters (17-50 cells) are counted.
# αvβ3 receptor = target: T2, αvβ3 receptor (Homo sapiens, UniProt P05106+P06756); test: αvβ3 binding test (echistatin displacement, WGA SPA beads); details: αvβ3 from human A375 cells
# T2 construct: αvβ3 from human A375 cells was purified; endogenous in cells; host or cells: human A375 cells (receptor purified from the cells, analogous to Wong et al. 1996)
# HT29 = test: Growth inhibition test (MTT), cytotoxic action on tumour cell lines; assay type: cell-based, human
# In short: as §1
# SW 480 = test: as above; assay type: cell-based, human
# In short: as §1
# T2 sequence (P06756 31-889 limits assumed): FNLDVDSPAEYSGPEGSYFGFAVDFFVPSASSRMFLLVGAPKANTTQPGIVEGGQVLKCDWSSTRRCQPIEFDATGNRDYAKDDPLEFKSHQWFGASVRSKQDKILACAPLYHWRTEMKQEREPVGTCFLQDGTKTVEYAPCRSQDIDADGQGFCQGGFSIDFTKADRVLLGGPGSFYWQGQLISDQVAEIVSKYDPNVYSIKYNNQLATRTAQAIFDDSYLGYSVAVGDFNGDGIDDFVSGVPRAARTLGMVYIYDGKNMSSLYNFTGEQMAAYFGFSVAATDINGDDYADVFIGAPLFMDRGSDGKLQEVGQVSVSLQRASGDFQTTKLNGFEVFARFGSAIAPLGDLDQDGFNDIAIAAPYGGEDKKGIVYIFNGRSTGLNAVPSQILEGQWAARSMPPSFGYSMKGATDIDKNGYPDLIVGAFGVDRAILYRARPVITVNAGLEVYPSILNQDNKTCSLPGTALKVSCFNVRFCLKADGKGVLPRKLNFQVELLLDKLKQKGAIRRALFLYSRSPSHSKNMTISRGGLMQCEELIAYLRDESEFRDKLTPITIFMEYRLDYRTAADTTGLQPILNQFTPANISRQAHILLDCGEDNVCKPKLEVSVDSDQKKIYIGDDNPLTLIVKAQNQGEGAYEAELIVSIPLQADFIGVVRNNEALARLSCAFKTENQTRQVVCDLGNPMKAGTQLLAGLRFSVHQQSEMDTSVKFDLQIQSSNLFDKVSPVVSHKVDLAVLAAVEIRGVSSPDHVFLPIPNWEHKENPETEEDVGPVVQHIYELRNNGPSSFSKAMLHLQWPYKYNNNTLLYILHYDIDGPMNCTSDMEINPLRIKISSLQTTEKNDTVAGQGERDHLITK
# T2 sequence (P06756 891-1048 partner limits assumed): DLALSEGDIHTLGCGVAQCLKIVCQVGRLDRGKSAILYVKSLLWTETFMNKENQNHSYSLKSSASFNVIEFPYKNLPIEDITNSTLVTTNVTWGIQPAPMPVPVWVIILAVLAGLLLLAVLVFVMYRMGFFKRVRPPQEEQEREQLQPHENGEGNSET
# T2 sequence (P05106 27-788): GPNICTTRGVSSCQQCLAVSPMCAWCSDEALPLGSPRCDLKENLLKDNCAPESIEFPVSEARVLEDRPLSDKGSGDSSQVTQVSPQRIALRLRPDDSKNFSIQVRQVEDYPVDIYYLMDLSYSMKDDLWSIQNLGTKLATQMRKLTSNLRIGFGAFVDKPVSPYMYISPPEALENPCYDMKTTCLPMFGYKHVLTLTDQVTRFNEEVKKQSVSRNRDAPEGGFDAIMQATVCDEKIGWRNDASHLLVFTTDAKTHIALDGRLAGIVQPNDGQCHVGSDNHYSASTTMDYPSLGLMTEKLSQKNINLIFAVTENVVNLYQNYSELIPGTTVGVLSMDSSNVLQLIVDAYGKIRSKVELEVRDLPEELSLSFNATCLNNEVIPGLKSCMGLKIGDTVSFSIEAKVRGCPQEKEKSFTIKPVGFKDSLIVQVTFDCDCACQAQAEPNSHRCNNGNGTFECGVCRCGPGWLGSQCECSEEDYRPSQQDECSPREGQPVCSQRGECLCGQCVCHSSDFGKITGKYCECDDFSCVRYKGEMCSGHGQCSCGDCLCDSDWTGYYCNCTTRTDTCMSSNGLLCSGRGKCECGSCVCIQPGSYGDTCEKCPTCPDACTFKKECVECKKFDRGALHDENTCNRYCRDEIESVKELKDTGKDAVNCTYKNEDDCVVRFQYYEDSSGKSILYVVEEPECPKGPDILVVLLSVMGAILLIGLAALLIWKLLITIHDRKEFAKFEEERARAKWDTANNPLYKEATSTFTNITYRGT
SMILES,"pIC50 (B16F10; mouse, 6 days)",MMP-2 mediated cleavage Peak area product/educt x100 (MMP-2),IC50 values of the inhibition of colony formation of hemopoietic stem cells (hemopoietic stem cells),pIC50 (αvβ3 receptor; read-out: IC50 values of the binding to the αvβ3 receptor),"pIC50 (HT29; human, 6 days)","pIC50 (SW 480; human, 6 days)","pIC50 (B16F10; B16F10, MTT after day 6, read-out: IC50 values of the cytotoxic action on tumour cell lines, B16F10)",IC50 values of the binding to the αvβ3 receptor (αvβ3 receptor),"pIC50 (HT29; HT29, MTT after day 6, read-out: IC50 values of the cytotoxic action on tumour cell lines, HT29)","pIC50 (SW 480; SW480, MTT after day 6, read-out: IC50 values of the cytotoxic action on tumour cell lines, SW480)"
CCCNC(=O)Nc1cccc(S(=O)(=O)Nc2cccc(C(CC(=O)O)NC(=O)Nc3ccc(NC(=S)N4CCC[C@@H]4C(=O)N[C@@H](CC(C)C)C(=O)NCC(=O)N[C@H](CC(C)C)C(=O)N[C@H](Cc4c[nH]cn4)C(=O)N[C@@H](C(=O)O[C@@]4(CC)C(=O)OCc5c4cc4n(c5=O)Cc5cc6ccccc6nc5-4)C(C)C)cc3)c2)c1 (some centres unmarked) [Example 1],6.60,17,0.03 µg/mL,7.40,7.30,7.15,,,,
"CCCNC(=O)Nc1cccc(S(=O)(=O)Nc2cccc(C(CC(=O)O)NC(=O)Nc3ccc(NC(=S)NCCCC(=O)N4CCC[C@@H]4C(=O)N[C@@H](CC(C)C)C(=O)NCC(=O)N[C@H](CC(C)C)C(=O)N[C@H](Cc4c[nH]cn4)C(=O)N[C@@H](C(=O)O[C@@]4(CC)C(=O)OCc5c4cc4n(c5=O)Cc5cc6ccccc6nc5-4)C(C)C)cc3)c2)c1 (stereo partly drawn) [Example 16] ({X1-CO}-[NH(1,4-C6H4)NHCS][GABA][dP]LG[dL][dH][dV]-{Camptothecin(20R,20-O)})",,,0.015 µg/mL,,,,7.30,nix,7.60,7.40
